Data on ten compounds can be found in ChEMBL document CHEMBL1201862, “PubChem BioAssay data set” (2004).

Among the test systems are A498; HCT-116; HOP-62; HOP-92; M14; MOLT-4; NCI-H226; OVCAR-3; OVCAR-4; RPMI-8226; SF-295; SF-539; SK-MEL-28; SK-MEL-2; SK-MEL-5; SNB-75; SR; TK-10; U-251; UACC-62.
Holding throughout (assay): NCI-60 cell line screen, 48 h

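Method: 48-hour compound exposure of cells in 96-well plates, five concentrations, linear interpolation of endpoints. Abbreviation: GI50, concentration required for 50% inhibition of growth.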 Activity calls are given as the source filed them. Rule as the data show it: active = GI50 up to about 1.1 µM and inactive = higher.

With `CCOC(=O)c1c(Br)c(-c2ccc(OC)cc2)c(Br)n1C`, the GI50 in the experiment with A498 is 14.6 µM (inactive); in the experiment on HCT-116, 6.56 µM (inactive); with HOP-62 it was 11.8 µM (inactive); with HOP-92 it was 8.17 µM (inactive); in the experiment with M14 it was 26.4 µM (inactive); with MOLT-4, 8.57 µM (inactive). In addition, the GI50 in the experiment on NCI-H226 was 22.2 µM (inactive); with OVCAR-3 it was 17.1 µM (inactive); in the experiment with OVCAR-4 it was 47.1 µM (inactive); with RPMI-8226, 17.7 µM (inactive); in the experiment with SF-295, 25.2 µM (inactive); in the experiment on SF-539, 20.7 µM (inactive). Further, the GI50 in the experiment with SK-MEL-28 is 37.6 µM (inactive); with SK-MEL-2, 19.2 µM (inactive); in the experiment on SK-MEL-5, 10.6 µM (inactive); with SNB-75 it was 1.94 µM (inactive); with SR it was 2.23 µM (inactive); in the experiment on TK-10, 20.7 µM (inactive). The GI50 was 33.2 µM (inactive) with U-251 and 5.09 µM (inactive) with UACC-62.

As for `C/C(CCn1[nH]c(=O)ccc1=O)=N\OCCCc1ccccc1`, the GI50 in the experiment with A498 is > 100 µM (inactive); in the experiment on HCT-116, > 100 µM (inactive); with HOP-62, > 100 µM (inactive); in the experiment on HOP-92, 88.5 µM (inactive); in the experiment on M14, > 100 µM (inactive); with MOLT-4, > 100 µM (inactive). Also, the GI50 in the experiment on NCI-H226, with OVCAR-3, in the experiment with OVCAR-4, with RPMI-8226, with SF-295 and in the experiment with SF-539 was > 100 µM (inactive) in each case. Moreover, the GI50 in the experiment on SK-MEL-28, with SK-MEL-2, with SK-MEL-5, in the experiment on SNB-75, with SR and in the experiment on TK-10 was > 100 µM (inactive) throughout. In the experiment with UACC-62, the GI50 is > 100 µM (inactive).

On to `O=c1[nH]c2cc(C(F)(F)F)ccc2nc1Cc1ccccc1`, for which the GI50 was 85.9 µM (inactive) in the experiment on A498; 71.6 µM (inactive) in the experiment on HCT-116; 28.9 µM (inactive) in the experiment on HOP-62; 18.5 µM (inactive) in the experiment on HOP-92; > 100 µM (inactive) in the experiment with M14; > 100 µM (inactive) in the experiment on MOLT-4. Also, the GI50 was > 100 µM (inactive) in the experiment on NCI-H226; 63.7 µM (inactive) with OVCAR-4; > 100 µM (inactive) with RPMI-8226; 40.6 µM (inactive) in the experiment on SF-295; 63.2 µM (inactive) with SF-539; > 100 µM (inactive) with SK-MEL-28. Further, the GI50 with SK-MEL-2 is > 100 µM (inactive); with SK-MEL-5, > 100 µM (inactive); in the experiment on SNB-75, 41.6 µM (inactive); in the experiment with SR, 36.6 µM (inactive); in the experiment on TK-10 it was > 100 µM (inactive); with U-251, 76 µM (inactive). Moreover, in the experiment with UACC-62, the GI50 is > 100 µM (inactive).

For the compound `O=C(NCc1ccccc1)c1cc2ccccc2o/c1=N\c1ccccc1F`, the GI50 was 38.6 µM (inactive) in the experiment with A498; 23.4 µM (inactive) in the experiment with HCT-116; 15.6 µM (inactive) in the experiment with HOP-62; 20 µM (inactive) in the experiment on HOP-92; 34.4 µM (inactive) in the experiment with M14; > 100 µM (inactive) with MOLT-4. Also, the GI50 in the experiment on NCI-H226 was 31.6 µM (inactive); with OVCAR-3, 46 µM (inactive); in the experiment with OVCAR-4 it was 13.5 µM (inactive); with RPMI-8226, > 100 µM (inactive); in the experiment on SF-295 it was 22 µM (inactive); in the experiment on SK-MEL-28 it was 66.2 µM (inactive). Besides, the GI50 in the experiment on SK-MEL-2 is 28.1 µM (inactive); in the experiment on SK-MEL-5 it was 19.1 µM (inactive); in the experiment on SNB-75 it was 20 µM (inactive); in the experiment on SR, 32.7 µM (inactive); in the experiment on TK-10, 13.6 µM (inactive); in the experiment with U-251, 35.5 µM (inactive). Besides, the GI50 in the experiment with UACC-62 was 29.9 µM (inactive).

Turning to `COc1cc(C2CC(C)(Nc3ccccc3)Oc3cc4c(cc32)OCO4)cc(OC)c1OC` (stereo not given), the GI50 in the experiment on A498 was 2.97 µM (inactive); in the experiment on HCT-116, 0.23 µM (active); in the experiment with HOP-62 it was 0.192 µM (active); with HOP-92 it was 15.8 µM (inactive); in the experiment on M14, 0.223 µM (active); in the experiment with MOLT-4, 0.535 µM (active). Also, the GI50 in the experiment on NCI-H226 is 0.855 µM (active); in the experiment on OVCAR-3 it was 0.219 µM (active); in the experiment with OVCAR-4, 1.84 µM (inactive); with RPMI-8226, 0.263 µM (active); in the experiment on SF-295, 0.199 µM (active); in the experiment with SF-539, 0.171 µM (active). Further, the GI50 was 0.254 µM (active) in the experiment on SK-MEL-28; 0.303 µM (active) with SK-MEL-2; 0.153 µM (active) in the experiment on SK-MEL-5; 3.49 µM (inactive) in the experiment with SNB-75; 0.239 µM (active) with SR; 1.88 µM (inactive) with TK-10. For the same compound, the GI50 in the experiment with U-251 was 0.279 µM (active); in the experiment on UACC-62, 0.203 µM (active).

With `CC(=O)N/C(=C\c1ccc(/C=C(\NC(C)=O)c2nc3cc(Cl)ccc3[nH]2)cc1)c1nc2ccccc2[nH]1`, the GI50 with A498, in the experiment with HCT-116, with HOP-62, in the experiment with HOP-92, in the experiment with M14 and with MOLT-4 was > 100 µM (inactive) each time. Moreover, the GI50 in the experiment with NCI-H226, in the experiment on OVCAR-3, in the experiment with RPMI-8226, in the experiment on SF-539, in the experiment with SK-MEL-28 and with SK-MEL-2 was > 100 µM (inactive) throughout. In addition, the GI50 with SK-MEL-5, in the experiment on SNB-75, in the experiment with SR, in the experiment on TK-10, in the experiment with U-251 and in the experiment with UACC-62 was > 100 µM (inactive) in each case.

In the case of `COC(=O)c1ccccc1C1CN=NC12Cc1cccc(C)c1C2=O` (stereo not given), the GI50 with A498 was 54.6 µM (inactive); in the experiment on HCT-116 it was 37.4 µM (inactive); in the experiment with HOP-62 it was 45.2 µM (inactive); in the experiment with HOP-92, 25.5 µM (inactive); in the experiment on MOLT-4, 32.8 µM (inactive); in the experiment with NCI-H226, 49.7 µM (inactive). Besides, the GI50 was 22.1 µM (inactive) in the experiment with OVCAR-3; 33 µM (inactive) with OVCAR-4; 29 µM (inactive) with RPMI-8226; 34.4 µM (inactive) with SF-295; > 100 µM (inactive) in the experiment with SF-539; 68.2 µM (inactive) with SK-MEL-28. The GI50 in the experiment on SK-MEL-2 was 46.1 µM (inactive); in the experiment with SK-MEL-5, 34.4 µM (inactive); in the experiment with SNB-75 it was 33.3 µM (inactive); in the experiment with SR, 94.4 µM (inactive); with TK-10, 65.9 µM (inactive); with U-251 it was 56 µM (inactive). Also, the GI50 in the experiment with UACC-62 was 34.7 µM (inactive).

With `Nc1cn(C2OC(CC(c3ccccc3)(c3ccccc3)c3ccccc3)C(O)C2O)c(=O)[nH]c1=O` (stereo not given), the GI50 with A498 is 39.6 µM (inactive); in the experiment on HCT-116, 17.6 µM (inactive); in the experiment with HOP-62 it was 23.4 µM (inactive); with HOP-92, 12.7 µM (inactive); in the experiment with M14, 22.5 µM (inactive); in the experiment on MOLT-4, 20.4 µM (inactive). Moreover, the GI50 in the experiment on NCI-H226 is 73.8 µM (inactive); with OVCAR-3, 14.5 µM (inactive); in the experiment with RPMI-8226, 18.7 µM (inactive); in the experiment on SF-295 it was 30.1 µM (inactive); with SK-MEL-28, 29.3 µM (inactive); in the experiment on SK-MEL-2, 28 µM (inactive). For the same compound, the GI50 in the experiment with SK-MEL-5 is 20.5 µM (inactive); with SNB-75, > 100 µM (inactive); in the experiment with SR it was 18.7 µM (inactive); with TK-10, 26.4 µM (inactive); in the experiment on U-251, 17.7 µM (inactive); in the experiment with UACC-62 it was 14.2 µM (inactive).

With `COc1ccc2c(c1)C1Oc3ccccc3CC1(O)CO2` (stereo not given), the GI50 in the experiment with A498, with HCT-116, in the experiment with HOP-62, with HOP-92, in the experiment with M14 and in the experiment on MOLT-4 was > 100 µM (inactive) each time. The GI50 in the experiment on NCI-H226, in the experiment with OVCAR-3, in the experiment with OVCAR-4, in the experiment on RPMI-8226, in the experiment with SF-295 and in the experiment on SF-539 was > 100 µM (inactive) in each case. The GI50 in the experiment with SK-MEL-2, in the experiment with SK-MEL-5, with SNB-75, in the experiment with SR, with TK-10 and with U-251 was > 100 µM (inactive) each time. Besides, in the experiment on UACC-62, the GI50 was > 100 µM (inactive).

As for `Fc1ccc(/N=C2C=C/C(=N\c3ccc(F)cc3)c3ccccc3\2)cc1`, the GI50 is > 100 µM (inactive) in the experiment on A498; > 100 µM (inactive) with HCT-116; 31.4 µM (inactive) with HOP-62; 19.4 µM (inactive) in the experiment with HOP-92; > 100 µM (inactive) in the experiment with M14; > 100 µM (inactive) in the experiment on MOLT-4. For the same compound, the GI50 in the experiment with NCI-H226 is 77.4 µM (inactive); in the experiment on OVCAR-3 it was > 100 µM (inactive); in the experiment with RPMI-8226 it was > 100 µM (inactive); in the experiment on SF-295, 51.4 µM (inactive); with SF-539, 54.1 µM (inactive); in the experiment with SK-MEL-28, > 100 µM (inactive). Moreover, the GI50 in the experiment with SK-MEL-2, in the experiment on SK-MEL-5, in the experiment with SNB-75, in the experiment on SR, with TK-10 and in the experiment on U-251 was > 100 µM (inactive) throughout. Moreover, the GI50 in the experiment on UACC-62 was 9.89 µM (inactive).
